# Values quoted from earlier work as cited in patent publication US9730899B2, “Controlled release pharmaceutical composition with resistance against the influence of ethanol employing a coating comprising neutral vinyl polymers and excipients” (Evonik Roehm GmbH, priority 2009, dated 2017).
# Where a name gives a salt, the structure may show the parent alone. Read-outs that look alike come from different tables or passages of the source.
# Conditions: USP classification, between 15° C. and 25° C.
structure (smiles),measurement,setting,value
NC(=O)N1c2ccccc2C=Cc2ccccc21 [Carbamazepine],Solubility in ethanol,,Soluble (more than 10 to 30)
same,Solubility in water,,Practically insoluble (more than 10.000)
C=CCN1CC[C@]23c4c5ccc(O)c4O[C@H]2C(=O)CC[C@@]3(O)[C@H]1C5 [Naloxone],Solubility in ethanol,,Slightly soluble (more than 100 to 1000)
same,Solubility in water,,Soluble (more than 10 to 30)
same,Solubility in ethanol,listed as naloxone,slightly soluble
Cn1c(=O)c2[nH]cnc2n(C)c1=O [Theophylline],Solubility in ethanol,,Sparingly soluble (more than 30 to 100)
same,Solubility in water,,Slightly soluble (more than 100 to 1000)
same,Solubility in ethanol,listed as theophyllin,sparingly soluble
COCCc1ccc(OCC(O)CNC(C)C)cc1 (centres unmarked) [Metoprolol succinate],Solubility in ethanol,,Sparingly soluble (more than 30 to 100)
same,Solubility in water,,Freely soluble (from 1 to 10)
same,Solubility in ethanol,listed as metoprolol,sparingly soluble
COc1ccc([C@@H]2Sc3ccccc3N(CCN(C)C)C(=O)[C@@H]2OC(C)=O)cc1 [Diltiazem HCl],Solubility in water,,Freely soluble (from 1 to 10)
same,Solubility in ethanol,HCl,Sparingly soluble (more than 30 to 100)
same,Solubility in ethanol,"listed as diltiazem, HCl",sparingly soluble
